Here are results for 25 molecules from patent US8735384B2, “Amino heteroaryl compounds as beta-secretase modulators and methods of use” (Amgen Inc., priority 2010, dated 2014).

The target of one assay is BACE1 (Homo sapiens, UniProt P56817). Briefly: In vitro enzymatic BACE FRET assay. Format: biochemical. The note with it: beta secretase enzyme 0.2 nM, FRET substrate 50 nM, pH 4.2; read-out: BACE1 FRET assay (IC50 class). The procedure: In Vitro Enzymatic BACE FRET (Fluorescence Resonance Energy Transfer) Assay (Enzyme Assay Data in Table 1)
BACE1, sequence (P56817 46-501, species assumed): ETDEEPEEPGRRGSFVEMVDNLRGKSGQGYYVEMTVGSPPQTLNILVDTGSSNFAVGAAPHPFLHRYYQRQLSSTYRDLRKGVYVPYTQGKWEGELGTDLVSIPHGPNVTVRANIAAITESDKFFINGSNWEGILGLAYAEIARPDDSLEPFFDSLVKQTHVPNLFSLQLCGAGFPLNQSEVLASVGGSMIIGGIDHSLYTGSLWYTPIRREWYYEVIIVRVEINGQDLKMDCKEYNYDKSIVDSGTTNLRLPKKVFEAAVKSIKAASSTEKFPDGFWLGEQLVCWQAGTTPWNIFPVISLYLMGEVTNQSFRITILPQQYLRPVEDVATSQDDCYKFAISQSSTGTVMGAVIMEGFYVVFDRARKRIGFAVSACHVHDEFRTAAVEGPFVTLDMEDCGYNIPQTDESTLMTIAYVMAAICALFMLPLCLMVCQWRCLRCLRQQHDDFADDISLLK
The assay buffer used in this screen is 0.05 M acetate, pH 4.2, 10% DMSO final, 100 uM genapol (which is a nonionic detergent, below its Critical Micelle Concentration). The beta secretase enzyme (0.2 nM) is pre-incubated for one hour with inhibitors, typically in about 1 uL of DMSO according to a serial dilution, are added thereto. The assay is effectively started by the addition of FRET substrate (50 nM) and the combination is incubated for one hour. The FRET assay is terminated with by addition of Tris buffer, which raises the pH to neutrality, and the fluorescence is determined. The FRET substrate is a peptide with commercially available fluorophore and quencher, on opposite sides of the BACE cleavage site. Proteolytic cleavage of the FRET substrate releases quenching of fluorescence (excitation […] and […]).
Of the compounds tested, the in-vitro BACE FRET enzyme data for each of Examples 1-220, where available at the time of filing this application, is provided in Table 1.

Assay [1] concerns Aβ40 in conditioned medium of cells stably expressing Amyloid Precursor Protein (APP). Briefly: In vitro BACE cell-based assay (HEK cell assay), Aβ40 sandwich ELISA. As to conditions: Homo sapiens, HEK293, 24 h, inhibition of Aβ40, 24 h incubation, read-out: HEK cell assay (IC50 class). The procedure: In Vitro BACE Cell-Based Assay:
The cell-based assay measures inhibition or reduction of Aβ40 in conditioned medium of test compound treated cells expressing amyloid precursor protein.
Cells stably expressing Amyloid Precursor Protein (APP) were plated at a density of 40K cells/well in 96 well plates (Costar). The cells were cultivated for 24 hours at 37° C. and 5% CO2 in DMEM supplemented with 10% FBS. The test compounds were then added to cells in 10-point dose response concentrations with the starting concentration being either 100 μM or 10 μM. The compounds were diluted from stock solutions in DMSO and the final DMSO concentration of the test compounds on cells was 0.1%. After 24 h of incubation with the test compounds the supernatant conditioned media was collected and the Aβ 40 levels were determined using a sandwich ELISA. The IC50 of the compound was calculated from the percent of control or percent inhibition of Aβ 40 as a function of the concentration of the test compound.
The sandwich ELISA to detect Aβ 40 was performed in 96 well microtiter plates, which were pre-treated with goat anti-rabbit IgG (Pierce). The capture and detecting antibody pair that were used to detect Aβ 40 from cell supernatants were affinity purified pAb40 (Biosource) and biotinylated 6E10 (Signet Labs Inc.), respectively. The optimal concentration for the pAb40 antibody was 3 μg/ml in Superblock/TBS (Pierce) that was supplemented with 0.05% Tween 20 (Sigma). Optimal concentration for the detection antibody 6E10-biotinylated was 0.5 μg/ml in Superblock/TBS (Pierce) that had been supplemented with 2% normal goat serum and 2% normal mouse serum.
Cellular supernatants were incubated with the capture antibody for 3 h at 4° C., followed by 3 wash steps in TBS-tween (0.05%). The detecting antibody incubation was for 2 h at 4° C., again followed by the wash steps as described previously. The final readout of the ELISA is Time-Resolved Fluorescence (counts per minute) using Delfia reagents Streptavidin-Europium and Enhancement solutions (Perkin Elmer) and the Victor 2 multilabel counter (Perkin Elmer).
On the technique in general: An ELISA detects its analyte on a solid surface through an enzyme-linked reagent.

In general, IC50 refers to the concentration at which inhibition is half-maximal. Regarding `Cc1cccc(OC2CCOC2)c1-c1ccc2nc(N)c(N3CCOCC3)cc2c1` (centres unmarked) [Example 54, 6-(2-methyl-6-(tetrahydrofuran-3-yloxy)phenyl)-3-morpholinoquinolin-2-amine], the IC50 at BACE1 fell in the range of 0.501 to 1 µM; in assay [1], 1.01 to 5 µM.
For `Cc1cccc(Nc2ccccc2)c1-c1ccc2nc(N)c(N3CCOCC3)cc2c1` [Example 55, 6-(2-methyl-6-(phenylamino)phenyl)-3-morpholinoquinolin-2-amine] the same measures were 0.1 to 0.5 µM and greater than 5 µM.
The like results for `Cc1cccc(C(=O)N2CCCC2)c1-c1ccc2nc(N)c(N3C[C@@H]4C[C@H]3CO4)cc2c1` [Example 56, (2-(2-amino-3-((1S,4S)-2-oxa-5-azabicyclo[2.2.1]heptan-5-yl)quinolin-6-yl)-3-methylphenyl)(pyrrolidin-1-yl)methanone] were, in that order, less than 0.1 µM and less than 0.1 µM.
For `Cc1cccc(C(=O)N2CCCC2)c1-c1ccc2nc(N)c(C3=CCCC3)cc2c1` [Example 57, (2-(2-amino-3-cyclopentenylquinolin-6-yl)-3-methylphenyl)(pyrrolidin-1-yl)methanone] the same measures were 0.1 to 0.5 µM and 1.01 to 5 µM.
For `Cc1cccc(C(=O)N2CCCCC2)c1-c1ccc2nc(N)c(N3CCOCC3)cc2c1` [Example 58, (2-(2-amino-3-morpholinoquinolin-6-yl)-3-methylphenyl)(piperidin-1-yl)methanone], the concentration for half-maximal inhibition (IC50) on BACE1 was less than 0.1 µM; in assay [1], 0.501 to 1 µM.
As for `Cc1cccc(C(=O)N2CCOCC2)c1-c1ccc2nc(N)c(N3CCOCC3)cc2c1` [Example 59, (2-(2-amino-3-morpholinoquinolin-6-yl)-3-methylphenyl)(morpholino)methanone], the IC50 on BACE1 fell in the range of 0.1 to 0.5 µM; in assay [1], 1.01 to 5 µM.
For `Cc1cccc(C(=O)N2CCCC2)c1-c1ccc2nc(N)c(N3CCCC3)cc2c1` [Example 60, (2-(2-amino-3-(pyrrolidin-1-yl)quinolin-6-yl)-3-methylphenyl)(pyrrolidin-1-yl)methanone] the same measures were 0.1 to 0.5 µM and 1.01 to 5 µM.
Consider `Cc1cccc(C(=O)N2CCCC2)c1-c1ccc2nc(N)c(N3CCCCC3)cc2c1` [Example 61, (2-(2-amino-3-(piperidin-1-yl)quinolin-6-yl)-3-methylphenyl)(pyrrolidin-1-yl)methanone], for which the concentration for half-maximal inhibition (IC50) on BACE1 lay in the range of 0.501 to 1 µM; in assay [1] it was 1.01 to 5 µM.
The like results for `CCOC(=O)c1cccc(C)c1-c1ccc2nc(N)c(N3CCOCC3)cc2c1` [Example 62, ethyl 2-(2-amino-3-morpholinoquinolin-6-yl)-3-methylbenzoate] were, in that order, 0.1 to 0.5 µM and 1.01 to 5 µM.
`CCCC1CCCN1C(=O)c1cccc(C)c1-c1ccc2nc(N)c(N3CCOCC3)cc2c1` (centres unmarked) [Example 63, (2-(2-amino-3-morpholinoquinolin-6-yl)-3-methylphenyl)(2-propylpyrrolidin-1-yl)methanone]: the values for the concentration for half-maximal inhibition (IC50) (on BACE1; in assay [1]) were 0.1 to 0.5 µM and 1.01 to 5 µM, respectively.
In the case of `Cc1cccc(C(=O)N2CCCC2C(C)(C)C)c1-c1ccc2nc(N)c(N3CCOCC3)cc2c1` (centres unmarked) [Example 64, (2-(2-amino-3-morpholinoquinolin-6-yl)-3-methylphenyl)(2-tert-butylpyrrolidin-1-yl)methanone], the IC50 at BACE1 was less than 0.1 µM; in assay [1], 0.501 to 1 µM.
The like results for `CCC1CCCN1C(=O)c1cccc(C)c1-c1ccc2nc(N)c(N3CCOCC3)cc2c1` (centres unmarked) [Example 65, (2-(2-amino-3-morpholinoquinolin-6-yl)-3-methylphenyl)(2-ethylpyrrolidin-1-yl)methanone] were, in that order, less than 0.1 µM and 0.501 to 1 µM.
For `Cc1cccc(C(=O)N2CCCC2C(C)C)c1-c1ccc2nc(N)c(N3CCOCC3)cc2c1` (centres unmarked) [Example 66, (2-(2-amino-3-morpholinoquinolin-6-yl)-3-methylphenyl)(2-isopropylpyrrolidin-1-yl)methanone] the same measures were less than 0.1 µM and 0.1 to 0.5 µM.
The like results for `Cc1cccc(C(=O)N2CCCC2C)c1-c1ccc2nc(N)c(N3CCOCC3)cc2c1` (centres unmarked) [Example 67, (2-(2-amino-3-morpholinoquinolin-6-yl)-3-methylphenyl)(2-methylpyrrolidin-1-yl)methanone] were, in that order, less than 0.1 µM and 0.1 to 0.5 µM.
Turning to `Cc1cccc(C(=O)N2C[C@H]3CC[C@@H]2C3)c1-c1ccc2nc(N)c(N3CCOCC3)cc2c1` [Example 68, (2-(2-amino-3-morpholinoquinolin-6-yl)-3-methylphenyl)((1R,4S)-2-azabicyclo[2.2.1]heptan-2-yl)methanone], the 50% inhibitory concentration (IC50) is less than 0.1 µM at BACE1 and 0.1 to 0.5 µM in assay [1].
For `Cc1cccc(C(=O)N2CC[C@@H](F)C2)c1-c1ccc2nc(N)c(N3CCOCC3)cc2c1` [Example 69, (R)-(2-(2-amino-3-morpholinoquinolin-6-yl)-3-methylphenyl)(3-fluoropyrrolidin-1-yl)methanone] the same measures were less than 0.1 µM and 0.1 to 0.5 µM.
Take `COC[C@H]1CCCN1C(=O)c1cccc(C)c1-c1ccc2nc(N)c(N3CCOCC3)cc2c1` [Example 70, (R)-(2-(2-amino-3-morpholinoquinolin-6-yl)-3-methylphenyl)(2-(methoxymethyl)pyrrolidin-1-yl)methanone]: the results for the IC50 (on BACE1; in assay [1]) were 0.1 to 0.5 µM and 1.01 to 5 µM, respectively.
With `COCCN(C)C(=O)c1cccc(C)c1-c1ccc2nc(N)c(N3CCOCC3)cc2c1` [Example 71, 2-(2-amino-3-morpholinoquinolin-6-yl)-N-(2-methoxyethyl)-N,3-dimethylbenzamide], the concentration for half-maximal inhibition (IC50) on BACE1 is 0.1 to 0.5 µM; in assay [1] it was 1.01 to 5 µM.
For `COC1CCN(C(=O)c2cccc(C)c2-c2ccc3nc(N)c(N4CCOCC4)cc3c2)CC1` [Example 72, (2-(2-amino-3-morpholinoquinolin-6-yl)-3-methylphenyl)(4-methoxypiperidin-1-yl)methanone] the same measures were less than 0.1 µM and 1.01 to 5 µM.
For `COCC1CCN(C(=O)c2cccc(C)c2-c2ccc3nc(N)c(N4CCOCC4)cc3c2)CC1` [Example 73, (2-(2-amino-3-morpholinoquinolin-6-yl)-3-methylphenyl)(4-(methoxymethyl)piperidin-1-yl)methanone] the same measures were 0.1 to 0.5 µM and 1.01 to 5 µM.
Turning to `CCOCC1CCN(C(=O)c2cccc(C)c2-c2ccc3nc(N)c(N4CCOCC4)cc3c2)CC1` [Example 74, (2-(2-amino-3-morpholinoquinolin-6-yl)-3-methylphenyl)(4-(ethoxymethyl)piperidin-1-yl)methanone], the values for the 50% inhibitory concentration (IC50) (at BACE1; in assay [1]) were less than 0.1 µM and 1.01 to 5 µM, respectively.
For `COCCC1CCN(C(=O)c2cccc(C)c2-c2ccc3nc(N)c(N4CCOCC4)cc3c2)CC1` [Example 75, (2-(2-amino-3-morpholinoquinolin-6-yl)-3-methylphenyl)(4-(2-methoxyethyl)piperidin-1-yl)methanone] the same measures were 0.1 to 0.5 µM and 1.01 to 5 µM.
The like results for `CCOC1CCN(C(=O)c2cccc(C)c2-c2ccc3nc(N)c(N4CCOCC4)cc3c2)CC1` [Example 76, (2-(2-amino-3-morpholinoquinolin-6-yl)-3-methylphenyl)(4-ethoxypiperidin-1-yl)methanone] were, in that order, less than 0.1 µM and 1.01 to 5 µM.
On to `Cc1cccc(C(=O)N2CCC[C@@H](C)C2)c1-c1ccc2nc(N)c(N3CCOCC3)cc2c1` [Example 77, (R)-(2-(2-amino-3-morpholinoquinolin-6-yl)-3-methylphenyl)(3-methylpiperidin-1-yl)methanone], for which the IC50 at BACE1 is less than 0.1 µM; in assay [1], 1.01 to 5 µM.
The like results for `CCCC1CCN(C(=O)c2cccc(C)c2-c2ccc3nc(N)c(N4CCOCC4)cc3c2)CC1` [Example 78, (2-(2-amino-3-morpholinoquinolin-6-yl)-3-methylphenyl)(4-propylpiperidin-1-yl)methanone] were, in that order, less than 0.1 µM and greater than 5 µM.
